Test system: adults with plaque psoriasis
Experiment: Long-term open-label extension study (PSOARING 3): Physician Global Assessment (PGA), treatment episodes, treatment success, remittive effect
Assay type: in vivo, human
Conditions: for Average Duration of Episodes, Mean (SD) / Average Duration of Episodes, Median / Average Duration of Treatment Success, Median / Duration of 1st Episode, Mean (SD) / Duration of 1st Episode, Median / Duration of 1st Success, Mean (SD) / Duration of 1st Success, Median / Duration of 2nd Episode, Mean (SD) / Duration of 2nd Episode, Median / Duration of 2nd Success, Mean (SD) / Duration of 2nd Success, Median / Duration of 3rd Episode, Mean (SD) / Duration of 3rd Episode, Median / Duration of 3rd Success, Mean (SD) / Duration of 3rd Success, Median / Duration of 4th Episode, Mean (SD) / Duration of 4th Episode, Median / Duration of Last Episode, Mean (SD) / Duration of Last Episode, Median / Duration of Last Success, Mean (SD) / Duration of Last Success, Median / Total Duration of Treatment Episodes, Mean (SD) / Total Duration of Treatment Episodes, Median / Total Duration of Treatment Success, Mean (SD) / Total Duration of Treatment Success, Median / Average Duration of Treatment Success (treatment free interval), Mean (SD) / Average Duration of Treatment Success, Mean (SD): ITT; for Average Duration of Treatment Success (treatment free interval), Mean (SD): Overall (n=299)
Method: This extension study consisted of up to 40 weeks of treatment and a 4 week, safety follow up period.
At the completion of the Week 12 visit of the DB, pivotal Phase 3 study, eligibility of the subjects opting to enroll in this extension study was confirmed. Study visits during the treatment period for all subjects occurred every 4 weeks (±3 days). A phone call was performed at Week 2 (Day 15). Unscheduled visits may have occurred, as needed. Subjects who withdrew from this study before Week 40 returned to the study center for an Early Termination visit. The total duration of this extension study participation was 44 weeks. Subjects in this study were treated as follows based on their PGA score from the Week 12 visit in the DB, pivotal Phase 3 study (Study DMVT 505 3001 or Study DMVT 505 3002).
The PGA was used to assess the primary efficacy endpoint in this study. The PGA is a clinical tool for assessing the current state/severity of a subject's psoriasis at a given time point. It is a static, 5 point, morphological assessment of overall disease severity, as determined by the Investigator, using the clinical characteristics of erythema, scaling, and plaque thickness/elevation as guidelines; higher PGA scores represent more severe disease (0=clear, 1=almost clear, 2=mild, 3=moderate, and 4=severe). The BSA affected was not considered in scoring of the PGA. Variations of the PGA are frequently used in clinical studies because it is a simple assessment, similar to those used in clinical practice. The PGA was performed first, prior to the % BSA, PASI, and LTS assessments.
Time to event parameters, such as the time from treatment success to subsequent worsening (PGA≥2) or duration of treatment episode, were summarized by the Kaplan Meier product limit method using OC.

CC(C)c1c(O)cc(/C=C/c2ccccc2)cc1O [Tapinarof, 3,5-Dihydroxy-4-isopropyl-trans-stilbene]
PGA 3 - Moderate (Baseline, Overall): 249 (32.8) n (%) | PGA 4 - Severe (Baseline, Overall): 23 (3.0) n (%) | PGA 0 - Clear (Baseline, Tapinarof (Pivotal)): 73 (14.5) n (%) | PGA 1 - Almost Clear (Baseline, Tapinarof (Pivotal)): 144 (28.5) n (%) | PGA 2 - Mild (Baseline, Tapinarof (Pivotal)): 188 (37.2) n (%) | PGA 3 - Moderate (Baseline, Tapinarof (Pivotal)): 93 (18.4) n (%) | PGA 4 - Severe (Baseline, Tapinarof (Pivotal)): 7 (1.4) n (%) | Average Duration of Episodes, Mean (SD) (Overall): 162.7 (96.20) days | Average Duration of Episodes, Median (Overall): 168.0 days | Average Duration of Treatment Success, Median (Overall): 84.0 days | Duration of 1st Episode, Mean (SD) (Overall): 163.1 (97.10) days | Duration of 1st Episode, Median (Overall): 169.0 days | Duration of 1st Success, Mean (SD) (Overall): 100.0 (78.49) days | Duration of 1st Success, Median (Overall): 84.0 days | Duration of 2nd Episode, Mean (SD) (Overall): 74.0 (55.35) days | Duration of 2nd Episode, Median (Overall): 57.0 days | Duration of 2nd Success, Mean (SD) (Overall): 65.4 (60.68) days | Duration of 2nd Success, Median (Overall): 41.0 days | Duration of 3rd Episode, Mean (SD) (Overall): 50.4 (41.38) days | Duration of 3rd Episode, Median (Overall): 32.5 days | Duration of 3rd Success, Mean (SD) (Overall): 30.0 (26.46) days | Duration of 3rd Success, Median (Overall): 28.0 days | Duration of 4th Episode, Mean (SD) (Overall): 1.0 (NE) days | Duration of 4th Episode, Median (Overall): 1.0 days | Duration of Last Episode, Mean (SD) (Overall): 162.4 (98.51) days | Duration of Last Episode, Median (Overall): 169.0 days | Duration of Last Success, Mean (SD) (Overall): 95.4 (82.18) days | Duration of Last Success, Median (Overall): 64.0 days | Total Duration of Treatment Episodes, Mean (SD) (Overall): 177.6 (90.38) days | Total Duration of Treatment Episodes, Median (Overall): 197.0 days | Total Duration of Treatment Success, Mean (SD) (Overall): 119.3 (81.80) days | Total Duration of Treatment Success, Median (Overall): 112.0 days | Average Duration of Treatment Success (treatment free interval), Mean (SD): 97.9 (76.60) days | Average Duration of Treatment Success (treatment free interval), Mean (SD) (listed as tapinarof): 97.9 days | Average Duration of Episodes, Mean (SD) (Tapinarof (Pivotal) group): 157.1 (97.16) days | Average Duration of Episodes, Median (Tapinarof (Pivotal) group): 140.5 days | Average Duration of Treatment Success, Mean (SD) (Tapinarof (Pivotal) group): 102.4 (77.90) days | Average Duration of Treatment Success, Median (Tapinarof (Pivotal) group): 84.0 days | Duration of 1st Episode, Mean (SD) (Tapinarof (Pivotal) group): 156.6 (98.77) days | Duration of 1st Episode, Median (Tapinarof (Pivotal) group): 147.5 days | Duration of 1st Success, Mean (SD) (Tapinarof (Pivotal) group): 103.0 (80.13) days | Duration of 1st Success, Median (Tapinarof (Pivotal) group): 84.0 days | Duration of 2nd Episode, Mean (SD) (Tapinarof (Pivotal) group): 80.7 (58.54) days | Duration of 2nd Episode, Median (Tapinarof (Pivotal) group): 60.5 days | Duration of 2nd Success, Mean (SD) (Tapinarof (Pivotal) group): 76.5 (63.07) days | Duration of 2nd Success, Median (Tapinarof (Pivotal) group): 56.0 days | Duration of 3rd Episode, Mean (SD) (Tapinarof (Pivotal) group): 49.6 (52.51) days | Duration of 3rd Episode, Median (Tapinarof (Pivotal) group): 28.0 days | Duration of 3rd Success, Mean (SD) (Tapinarof (Pivotal) group): 32.7 (28.40) days | Duration of 3rd Success, Median (Tapinarof (Pivotal) group): 28.5 days | Duration of Last Episode, Mean (SD) (Tapinarof (Pivotal) group): 157.6 (99.25) days | Duration of Last Episode, Median (Tapinarof (Pivotal) group): 168.0 days | Duration of Last Success, Mean (SD) (Tapinarof (Pivotal) group): 101.5 (83.51) days | Duration of Last Success, Median (Tapinarof (Pivotal) group): 82.5 days | Total Duration of Treatment Episodes, Mean (SD) (Tapinarof (Pivotal) group): 173.2 (92.39) days | Total Duration of Treatment Episodes, Median (Tapinarof (Pivotal) group): 196.0 days | Total Duration of Treatment Success, Mean (SD) (Tapinarof (Pivotal) group): 125.4 (83.22) days | Total Duration of Treatment Success, Median (Tapinarof (Pivotal) group): 116.5 days | Average Duration of Episodes, Mean (SD) (Vehicle (Pivotal) group): 173.4 (93.60) days | Average Duration of Episodes, Median (Vehicle (Pivotal) group): 195.0 days | Average Duration of Treatment Success, Mean (SD) (Vehicle (Pivotal) group): 86.8 (72.58) days | Average Duration of Treatment Success, Median (Vehicle (Pivotal) group): 64.0 days | Duration of 1st Episode, Mean (SD) (Vehicle (Pivotal) group): 175.5 (92.74) days | Duration of 1st Episode, Median (Vehicle (Pivotal) group): 196.0 days | Duration of 1st Success, Mean (SD) (Vehicle (Pivotal) group): 92.8 (74.32) days | Duration of 1st Success, Median (Vehicle (Pivotal) group): 85.0 days | Duration of 2nd Episode, Mean (SD) (Vehicle (Pivotal) group): 57.8 (43.31) days | Duration of 2nd Episode, Median (Vehicle (Pivotal) group): 38.0 days | Duration of 2nd Success, Mean (SD) (Vehicle (Pivotal) group): 39.1 (45.75) days | Duration of 2nd Success, Median (Vehicle (Pivotal) group): 28.0 days | Duration of 3rd Episode, Mean (SD) (Vehicle (Pivotal) group): 51.6 (24.51) days | Duration of 3rd Episode, Median (Vehicle (Pivotal) group): 56.0 days | Duration of 3rd Success, Mean (SD) (Vehicle (Pivotal) group): 19.3 (15.89) days | Duration of 3rd Success, Median (Vehicle (Pivotal) group): 28.0 days | Duration of 4th Episode, Mean (SD) (Vehicle (Pivotal) group): 1.0 (NE) days | Duration of 4th Episode, Median (Vehicle (Pivotal) group): 1.0 days | Duration of Last Episode, Mean (SD) (Vehicle (Pivotal) group): 171.4 (96.61) days | Duration of Last Episode, Median (Vehicle (Pivotal) group): 195.0 days | Duration of Last Success, Mean (SD) (Vehicle (Pivotal) group): 80.5 (77.32) days | Duration of Last Success, Median (Vehicle (Pivotal) group): 56.0 days | Total Duration of Treatment Episodes, Mean (SD) (Vehicle (Pivotal) group): 185.9 (85.95) days | Total Duration of Treatment Episodes, Median (Vehicle (Pivotal) group): 197.0 days | Total Duration of Treatment Success, Mean (SD) (Vehicle (Pivotal) group): 104.3 (76.62) days

Source: patent publication US20220395472A1 (Dermavant Sciences GmbH, priority 2021, published 2022)
